This passage reports Ki results from patent US20260242353A1, “HETEROARYL DERIVATIVES AS DDRs INHIBITORS” (CHIESI FARMACEUTICI S.P.A., priority 2022, published 2026).

Experiment [1] deals with T1, DDR2 (Homo sapiens, UniProt Q16832).
T1 construct: purchased Life Technologies
T1 sequence (Q16832 22-855): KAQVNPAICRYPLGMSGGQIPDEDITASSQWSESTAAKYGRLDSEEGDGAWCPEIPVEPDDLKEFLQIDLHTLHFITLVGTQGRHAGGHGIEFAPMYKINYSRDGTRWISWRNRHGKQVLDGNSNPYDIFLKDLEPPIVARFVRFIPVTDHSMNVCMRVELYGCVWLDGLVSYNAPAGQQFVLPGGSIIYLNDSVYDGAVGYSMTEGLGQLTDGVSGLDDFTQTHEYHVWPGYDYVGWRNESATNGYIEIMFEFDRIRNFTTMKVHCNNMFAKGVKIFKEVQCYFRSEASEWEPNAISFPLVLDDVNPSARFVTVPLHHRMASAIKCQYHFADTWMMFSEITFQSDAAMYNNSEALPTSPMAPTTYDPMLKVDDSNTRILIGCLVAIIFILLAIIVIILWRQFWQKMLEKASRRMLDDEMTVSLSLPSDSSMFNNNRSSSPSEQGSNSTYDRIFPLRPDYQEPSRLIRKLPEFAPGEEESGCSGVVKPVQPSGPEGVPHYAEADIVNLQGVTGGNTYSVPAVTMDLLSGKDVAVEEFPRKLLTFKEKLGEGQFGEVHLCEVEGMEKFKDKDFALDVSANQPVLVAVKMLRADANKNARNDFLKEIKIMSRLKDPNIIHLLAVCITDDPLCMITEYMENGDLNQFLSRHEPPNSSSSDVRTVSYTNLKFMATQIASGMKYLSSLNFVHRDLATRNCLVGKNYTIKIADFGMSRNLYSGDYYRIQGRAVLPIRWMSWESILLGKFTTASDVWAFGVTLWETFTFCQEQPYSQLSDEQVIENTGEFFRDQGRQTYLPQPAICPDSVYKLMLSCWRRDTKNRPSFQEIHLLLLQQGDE
The experiment in a line: LanthaScreen Europium Kinase Binding assay, DDR2. The note with it: 5 nM DDR2, 10 nM Kinase Tracer 178, 1 h at rt; Ki from IC50 by Cheng-Prusoff; read-out: Ki DDR2. The gist of the method: (§1)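 Compounds were incubated 1 h at rt with 5 nM DDR1 plus 20 nM Kinase Tracer 178, or 5 nM DDR2 plus 10 nM tracer, and 2 nM Eu anti-GST antibody in HEPES pH 7.5 buffer. Read-out was the TR-FRET 665/615 nm ratio. IC50 came from a 4-parameter fit and was converted to Ki by Cheng-Prusoff.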

Experiment [2] deals with T2, DDR1 (Homo sapiens, UniProt Q08345).
T2 construct: purchased Carna Biosciences
The experiment in a line: LanthaScreen Europium Kinase Binding assay, DDR1. The note with it: 5 nM DDR1, 20 nM Kinase Tracer 178, 1 h at rt; Ki from IC50 by Cheng-Prusoff; read-out: Ki DDR1. The gist of the method: as §1
(In general: TR-FRET usually uses a lanthanide donor and a delayed reading to cut background.)

Structures are written as SMILES.

T2 sequence (Q08345 19-913): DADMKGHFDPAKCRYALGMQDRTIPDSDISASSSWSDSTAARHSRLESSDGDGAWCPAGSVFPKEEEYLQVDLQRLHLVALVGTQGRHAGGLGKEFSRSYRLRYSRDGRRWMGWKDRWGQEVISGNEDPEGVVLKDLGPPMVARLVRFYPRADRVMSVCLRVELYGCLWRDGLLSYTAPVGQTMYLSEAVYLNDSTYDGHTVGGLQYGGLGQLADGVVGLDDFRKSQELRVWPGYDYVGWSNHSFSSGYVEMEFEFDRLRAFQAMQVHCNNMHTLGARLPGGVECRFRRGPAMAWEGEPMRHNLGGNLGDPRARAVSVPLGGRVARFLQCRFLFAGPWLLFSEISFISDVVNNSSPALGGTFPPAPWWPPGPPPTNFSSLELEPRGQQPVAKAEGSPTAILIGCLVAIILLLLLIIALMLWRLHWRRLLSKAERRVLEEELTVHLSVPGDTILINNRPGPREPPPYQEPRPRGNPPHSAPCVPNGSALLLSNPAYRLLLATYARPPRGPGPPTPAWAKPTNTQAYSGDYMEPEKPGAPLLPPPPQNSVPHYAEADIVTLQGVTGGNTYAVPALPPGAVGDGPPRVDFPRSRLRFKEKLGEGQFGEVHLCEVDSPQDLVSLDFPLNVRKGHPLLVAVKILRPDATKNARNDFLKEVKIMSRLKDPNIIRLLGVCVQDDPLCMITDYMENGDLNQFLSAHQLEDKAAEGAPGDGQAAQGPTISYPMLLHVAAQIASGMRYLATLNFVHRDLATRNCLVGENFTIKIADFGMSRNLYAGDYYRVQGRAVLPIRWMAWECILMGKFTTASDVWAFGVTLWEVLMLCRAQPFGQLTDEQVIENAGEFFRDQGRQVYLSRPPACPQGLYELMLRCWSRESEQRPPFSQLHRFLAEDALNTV

By Ki is commonly meant a dissociation constant, usually derived from enzyme kinetics or from competition with a known ligand. For the molecule `Cc1ccc(C(=O)Nc2cncc(C(F)(F)F)c2)cc1[C@@H]1CCN(c2cncc(C(=O)NCCN(C)C)c2)C1` [Example 23, (S)-N-(2-(dimethylamino)ethyl)-5-(3-(2-methyl-5-((5-(trifluoromethyl)pyridin-3-yl)carbamoyl)phenyl)pyrrolidin-1-yl)nicotinamide], the values for the Ki in experiment [1] and in experiment [2] were 5 to 25 nM and less than 5 nM, respectively.
For `Cc1ccc(C(=O)Nc2cncc(C(F)(F)F)c2)cc1[C@@H]1CCN(c2cnn3ccccc23)C1` [Example 34, (S)-4-methyl-3-(1-(pyrazolo[1,5-a]pyridin-3-yl)pyrrolidin-3-yl)-N-(5-(trifluoromethyl)pyridin-3-yl)benzamide], in that order: 5 to 25 nM and less than 5 nM.
For the molecule `Cc1ccc(C(=O)Nc2cncc(C(F)(F)F)c2)cc1[C@@H]1CCN(c2cnc3cccnn23)C1` [Example 36, (S)-3-(1-(imidazo[1,2-b]pyridazin-3-yl)pyrrolidin-3-yl)-4-methyl-N-(5-(trifluoromethyl)pyridin-3-yl)benzamide], the Ki in experiment [1] was 5 to 25 nM; in experiment [2] it was less than 5 nM.
Turning to `COc1ccc(C(=O)Nc2cncc(C(F)(F)F)c2)cc1C1CCN(c2ccnc(C(N)=O)c2)C1` (stereo not shown) [Example 64, 4-(3-(2-methoxy-5-((5-(trifluoromethyl)pyridin-3-yl)carbamoyl)phenyl)pyrrolidin-1-yl)picolinamide], the Ki is 5 to 25 nM in experiment [1] and less than 5 nM in experiment [2].
The corresponding values for `Cc1ccc(C(=O)Nc2cncc(C(F)(F)F)c2)cc1N1CC(Oc2cncc(N)c2)C1` [Example 47, 3-(3-((5-aminopyridin-3-yl)oxy)azetidin-1-yl)-4-methyl-N-(5-(trifluoromethyl)pyridin-3-yl)benzamide] are 5 to 25 nM and 5 to 25 nM.
`COc1cnc2c(N3CC[C@@H](c4cc(C(=O)Nc5cncc(C(F)(F)F)c5)ccc4C)C3)cnn2c1` [Example 97, (S)-3-(1-(6-methoxypyrazolo[1,5-a]pyrimidin-3-yl)pyrrolidin-3-yl)-4-methyl-N-(5-(trifluoromethyl)pyridin-3-yl)benzamide]: the Ki in experiment [1] was 5 to 25 nM; in experiment [2], less than 5 nM.
For `Cc1ccc(C(=O)Nc2cncc(C(F)(F)F)c2)cc1[C@@H]1CCN(c2ncnc3cc(C(=O)N4CCN(C)CC4)sc23)C1` [Example 126, (S)-4-methyl-3-(1-(6-(4-methylpiperazine-1-carbonyl)thieno[3,2-d]pyrimidin-4-yl)pyrrolidin-3-yl)-N-(5-(trifluoromethyl)pyridin-3-yl)benzamide], in that order: 5 to 25 nM and less than 5 nM.
In the case of `Cc1ccc(C(=O)Nc2cc(C(C)(C)C)no2)cc1[C@@H]1CCN(c2cncc(C(N)=O)c2)C1` [Example 6, (S)-5-(3-(5-((3-(tert-butyl)isoxazol-5-yl)carbamoyl)-2-methylphenyl)pyrrolidin-1-yl)nicotinamide], the inhibitory constant (Ki) in experiment [1] and in experiment [2] was less than 5 nM in each case.
Turning to `Cc1ccc(C(=O)Nc2cncc(C(F)(F)F)c2)cc1[C@@H]1CCN(c2cnn(C)c2C(N)=O)C1` [Example 65, (S)-1-methyl-4-(3-(2-methyl-5-((5-(trifluoromethyl)pyridin-3-yl)carbamoyl)phenyl)pyrrolidin-1-yl)-1H-pyrazole-5-carboxamide], the Ki in experiment [1] was 5 to 25 nM; in experiment [2], less than 5 nM.
For the molecule `CNC(=O)c1cc2ncnc(N3CC[C@@H](c4cc(C(=O)Nc5cncc(C(F)(F)F)c5)ccc4C)C3)c2s1` [Example 108, (S)-N-methyl-4-(3-(2-methyl-5-((5-(trifluoromethyl)pyridin-3-yl)carbamoyl)phenyl)pyrrolidin-1-yl)thieno[3,2-d]pyrimidine-6-carboxamide], the Ki in experiment [1] and in experiment [2] was less than 5 nM in each case.
As for `Cc1ccc(C(=O)Nc2cc(C3CC3)nn2C)cc1[C@@H]1CCN(c2cncnc2)C1` [Example 70, (S)-N-(3-cyclopropyl-1-methyl-1H-pyrazol-5-yl)-4-methyl-3-(1-(pyrimidin-5-yl)pyrrolidin-3-yl)benzamide], the Ki in experiment [1] lay within 25 to 100 nM; in experiment [2] it was 5 to 25 nM.
Consider `Cc1ccc(C(=O)Nc2cc(C(C)(C)C)n(C)n2)cc1[C@@H]1CCN(c2ncnc3ccsc23)C1` [Example 131, (S)-N-(5-(tert-butyl)-1-methyl-1H-pyrazol-3-yl)-4-methyl-3-(1-(thieno[3,2-d]pyrimidin-4-yl)pyrrolidin-3-yl)benzamide], for which the Ki in experiment [1] and in experiment [2] was less than 5 nM throughout.
With `Cc1ccc(C(=O)Nc2cncc(C(F)(F)F)c2)cc1[C@@H]1CCN(c2cn[nH]c2)C1` [Example 100, (S)-3-(1-(1H-pyrazol-4-yl)pyrrolidin-3-yl)-4-methyl-N-(5-(trifluoromethyl)pyridin-3-yl)benzamide], the Ki in experiment [1] is 5 to 25 nM; in experiment [2], less than 5 nM.
The corresponding values for `Cc1ccc(C(=O)Nc2cncc(C(F)(F)F)c2)cc1[C@@H]1CCN(c2cnc3ccc(N4CCOCC4)nn23)C1` [Example 84, (S)-4-methyl-3-(1-(6-morpholinoimidazo[1,2-b]pyridazin-3-yl)pyrrolidin-3-yl)-N-(5-(trifluoromethyl)pyridin-3-yl)benzamide] are 5 to 25 nM and less than 5 nM.
The corresponding values for `Cc1ccc(C(=O)Nc2cncc(C(F)(F)F)c2)cc1[C@@H]1CCN(c2cnn(C)c2)C1` [Example 88, (S)-4-methyl-3-(1-(1-methyl-1H-pyrazol-4-yl)pyrrolidin-3-yl)-N-(5-(trifluoromethyl)pyridin-3-yl)benzamide] are 5 to 25 nM and 5 to 25 nM.
Regarding `CNc1ncc(N2CC[C@@H](c3cc(C(=O)Nc4cncc(C(F)(F)F)c4)ccc3C)C2)cn1` [Example 99, (S)-4-methyl-3-(1-(2-(methylamino)pyrimidin-5-yl)pyrrolidin-3-yl)-N-(5-(trifluoromethyl)pyridin-3-yl)benzamide], the Ki in experiment [1] is 5 to 25 nM; in experiment [2], less than 5 nM.
The corresponding values for `Cc1ccc(C(=O)Nc2cncc(C(F)(F)F)c2)cc1[C@@H]1CCN(c2cnccc2C(=O)NC2COC2)C1` [Example 41, (S)-3-(3-(2-methyl-5-((5-(trifluoromethyl)pyridin-3-yl)carbamoyl)phenyl)pyrrolidin-1-yl)-N-(oxetan-3-yl)isonicotinamide] are 25 to 100 nM and less than 5 nM.
For `Cc1ccn2ncc(N3CC[C@@H](c4cc(C(=O)Nc5cncc(C(F)(F)F)c5)ccc4C)C3)c2n1` [Example 86, (S)-4-methyl-3-(1-(5-methylpyrazolo[1,5-a]pyrimidin-3-yl)pyrrolidin-3-yl)-N-(5-(trifluoromethyl)pyridin-3-yl)benzamide], in that order: 5 to 25 nM and less than 5 nM.
For `Cc1ccc(C(=O)Nc2cncc(C(F)(F)F)c2)cc1[C@@H]1CCN(c2cncc(C(=O)N[C@H]3C[C@@H](O)C3)c2)C1` [Example 39, N-((1s,3R)-3-hydroxycyclobutyl)-5-((S)-3-(2-methyl-5-((5-(trifluoromethyl)pyridin-3-yl)carbamoyl)phenyl)pyrrolidin-1-yl)nicotinamide], in that order: less than 5 nM and less than 5 nM.
Turning to `Cn1nc(NC(=O)c2ccc(C(F)F)c(C3CCN(c4cncnc4)C3)c2)cc1C(C)(C)C` (stereo not shown) [Example 124, N-(5-(tert-butyl)-1-methyl-1H-pyrazol-3-yl)-4-(difluoromethyl)-3-(1-(pyrimidin-5-yl)pyrrolidin-3-yl)benzamide], the inhibitory constant (Ki) is 5 to 25 nM in experiment [1] and less than 5 nM in experiment [2].
